Reference: patent US12540150B1, “Fluorogenic probe using a Mislow-Evans rearrangement for real-time imaging of hydrogen peroxide” (University of Pittsburgh—Of the Commonwealth System of …, priority 2020, dated 2026)
“And” between values parts separate entries of the source, which are not always exact repeats. Equal entries are not always repeated.

Columns and labels:
[1] = Selectivity of 1: reaction with NO·; settings: 15 min minus 0 min
endothelial cells = test: Localization of 1 in endothelial cells with MitoTracker Red, ionomycin stimulation; format: cell-based; settings: ionomycin 10 μM
Procedure: To study the localization of 1, endothelial cells were simultaneously incubated with 1 μM MitoTracker® Red FM (ThermoFisher Scientific) for 20 min at 37° C. (FIG. 24D). The dish was inserted in a closed, thermo-controlled (37° C.) stage top incubator (Tokai Hit Co., Shizuoka-ken, Ja-pan) atop the motorized stage of an inverted Nikon TiE fluorescent microscope (Nikon Inc., Melville, NY) equipped with a 60× oil immersion optic (Nikon, CFI PlanFluor, NA 1.49) and NIS Elements Software. The sample was excited using the 555 nm line and detected using a TRITC filter set.

HeLa cells = test: Imaging of exogenously added H2O2 in HeLa cells; format: cell-based; settings: 0.5 μM 1, 37° C.
Procedure: It was then attempted to image H2O2 within cells. HeLa cells were seeded on 35-mm glass bottom dishes (MatTek Corporation, Ashland, MA) and incubated with 0.5 μM 1 in 0.1% DMSO in DMEM (10% FBS with penicillin/streptomycin) prior to imaging. After washing with HBSS and replacing the media, H2O2 was added. The dish was inserted in a closed, thermo-controlled (37° C.) stage top incubator (Tokai Hit Co., Shizuoka-ken, Ja-pan) atop the motorized stage of an inverted Nikon TiE fluorescent microscope (Nikon Inc., Melville, NY) equipped with a 60× oil immersion optic (Nikon, CFI PlanFluor, NA 1.49) and NIS Elements Software. The sample was excited using the 470 nm line of a Lumencor diode-pumped light engine (SpectraX, Lumencor Inc., Beaverton OR). Fluorescence was detected using an ET-GFP filter set (Chroma Technology Corp) and ORCA-Flash 4.0 sCMOS camera (HAMAMATSU Corporation, Bridgewater, NJ).

[2] = Selectivity of 1: reaction with tBuOOH; settings: for Fluorescence Intensity: pH 7, 25° C., 15 min
Procedure: 'BuOOH was also tested for reactivity with 1. A solution of 5:95 MeCN/50 mM phosphate pH 7 buffer (160 μL) was added to the wells of a black 96-well plate. 10 μM 1 in DMSO (20 μL) was added to each well. 0 mM H2O2 in water (20 μL) or 0, 10, or 100 μM tBuOOH in DMSO (20 μL) were then added to the wells.

[3] = Selectivity of 1: reaction with NO2^−; settings: for Fluorescence: change over first 15 min
Procedure: It was then sought to determine whether RNS would react with 1 to produce fluorescence. The probe 1 was first exposed to NO2^− at various concentrations. NaNO2 (97.0 mg) was dissolved in ultrapure water (2.00 mL). […] A solution of 100 μM 1 in ethanol (20 μL) was added to 5:95 methanol/50 mM phosphate pH 7 buffer (160 μL). The NaNO2 or H2O2 solutions (20 μL) were added to the solution containing 1 and the fluorescence intensity was measured immediately and again after incubation at 25° C. for 15 min. The fluorescence change over the first 15 min was reported for NO2^− in FIG. 20 and Table 11.

[4] = Fluorescence response of 1 with increasing concentrations of H2O2; settings: 0-159 μM H2O2 solutions, phosphate pH 7 buffer, 25° C., 20 min
Procedure: To verify that 1 could quantitatively measure H2O2 concentrations, 1 was incubated with increasing concentrations of H2O2. A solution of 0-159 μM H2O2 in 5:95 MeCN/50 mM phosphate pH 7 buffer (180 μL) was added to the wells of a black 96-well plate. A solution of 100 μM 1 in MeCN (20 μL) was then added to the wells. The solutions were allowed to incubate at 25° C. for 20 min before the fluorescence was measured.

Oc1ccc2c(c1)Oc1cc(O/C=C/C[Se]c3ccccc3)ccc1[C@@]21OCc2ccccc21 [Compound 1, (S,E)-6′-((3-(Phenylselanyl)prop-1-en-1-yl)oxy)-3H-spiro[isobenzofuran-1,9′-xanthen]-3′-ol]
Fluorescence ([1]; 0.1 μM H2O2): 9,370 and 9,525 and 9,517
Fluorescence ([1]; 1 μM H2O2): 26,155 and 26,618 and 27,176
Fluorescence ([1]; 10 μM H2O2): 111,008 and 106,765 and 111,053
time after the addition of ionomycin of first image showing increased fluorescence (endothelial cells): ≤ 8 s
time to significant increase in fluorescence after H2O2 addition (HeLa cells): ≤ 30 s
fluorescence with tBuOOH [2]: did not produce fluorescence even at 10 μM
Fluorescence Intensity ([2]; 10 μM ^tBuOOH): 31,650 and 28,922 and 33,363
Fluorescence Intensity ([2]; H2O2): 277,013 and 296,506 and 250,145
Fluorescence Intensity ([2]; no ROS): 34,525 and 36,401 and 39,836
reaction with NO2^− [3]: did not react
Fluorescence ([3]; 0 μM NO2^− or H2O2, pH 7, 25° C.): 24,359 and 26,870 and 26,226
Fluorescence ([3]; 0.1 μM H2O2): 58,172 and 52,104 and 52,249
Fluorescence ([3]; 0.1 μM NO2^−): 31,075 and 36,429 and 27,504
Fluorescence ([3]; 1 μM H2O2): 266,770 and 242,313 and 222,834
Fluorescence ([3]; 1 μM NO2^−): 26,768 and 31,470 and 33,004
fluorescence dependence on H2O2 concentration [4]: increased linearly with H2O2 concentration
